Test results from patent US6660835B1, “Lead substances and their use as therapeutics” (priority 1998, dated 2003).
Ends that are not written are not given here.

Key:
[1] = test system: S. epidermidis agr P3 promoter; details: peptide 200 nM; for Specific CAT activity: S. epidermidis, without peptide 12.5
[2] = test system: S. aureus Newman; experiment: Exoprotein and surface-associated protein production, Tricine SDS-PAGE; details: 1 μM, 16 h culture
Procedure: FIG. 6: Influence of the S. epidermidis pheromone and its derivatives on the production of exoproteins and surface-associated proteins in S. aureus Newman. (A) Exoproteins: basic medium was inoculated with 1/100 vol. of a preculture of S. aureus Newman. At the same time, the pheromone or one of its derivatives was added at a concentration of 1 μM. The peptides were dissolved in DMSO (dimethylsulfoxide); a control received only DMSO. Culture filtrates (20 μl) of the cultures harvested after 16 h of growth were applied to Tricine SDS-PAGE and stained with Coomassie Blue. (B) Surface-associated proteins: pellets of the centrifuged 16 h cultures were dissolved in SDS-PAGE loading buffer containing 1% SDS, boiled at 1000C for 5 min, and applied to Tricine SDS-PAGE after removal of insoluble material by centrifugation. […] (SEQ ID NO: 17); (6) control (with DMSO); (7) molecular weight standards.
The effect of the synthetic cyclic peptides on the production pattern of surface-associated proteins and exoproteins was investigated (for Exoprotein analysis of S. epidermidis see Experimental procedures).
The synthetic cyclic peptides were added at a concentration of 1 μM to a culture that was inoculated by 1/100 vol. of a preculture; the cultures were incubated for 16 h. […]

| Substance | Specific CAT activity [1] [U/mg protein] | effect on CAT activity [1] | surface-associated proteins synthesized ([2]; cell pellets) | reduction of exoprotein production ([2]; culture filtrate) |
| --- | --- | --- | --- | --- |
| SVCASYF (not fully specified (bridges); also: thioester linkage to Cys3; listed as Staphylococcus epidermidis) | 8.9 |  |  |  |
| SVc[CASYF]: S. epidermidis pheromone lacking the original aspartate residue at the N-terminus (SVXASYF; thiolactone cyclisation; VARIANT (3) C-terminal cyclyzed through thioester linkage to cystine residue 3; listed as Staphylococcus epidermidis) | 16.1 | very small stimulatory effect | synthesized in higher amounts | most pronounced |
